# In patent publication US20020137929A1, “1 - (3-heterocyclylphenyl) isothiourea, -isourea, -guanidine and -amidine herbicidal agents” (Intellectual Property Department, BASF Aktiengesellschaft, priority 1998, published 2002):
# Key:
# AMBEL (Ragweed, Common) = experiment: Postemergence herbicidal evaluation; format: in vivo, Ambrosia artemisifolia; settings: for herbicidal rating AMBEL / AMBEL herbicidal rating: postemergence
# How it was run: (§1)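 Rate range approx. 0.0156–0.500 kg/ha. Foliar application at 40 psi to ~2-week seedlings; surfactant 0.5% TWEEN 20 in 50/50 acetone/water. Evaluation 4–5 wk post-treatment by 0–9 visual injury score, means of replicate tests.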
# ORYSAT (Rice, Tebonnet) = experiment: Rice tolerance to post-transplant applications, flooded paddy conditions (Table III); format: in vivo, Oryza sativa, (L.) Tebonnet; settings: in vivo
# Protocol: Results of herbicide evaluation are expressed on a rating scale (0-9). The scale is based upon a visual observation of plant stand, vigor, malformation, size, chlorosis and overall plant appearance as compared with a control.
# The tolerance of transplanted rice to post-transplanted herbicide applications is determined as follows: two ten-day-old rice seedlings (cv. Tebonnet) are transplanted into silt loam soil in 32 oz. plastic containers with a diameter of 10.5 cm and no drainage holes. After transplanting, the containers are flooded and the water level is maintained at 1.5 to 3 cm above the soil surface. Three days after transplanting, the flooded soil surface of the containers is treated with the selected aqueous/acetone 50/50 v/v mixture containing the test compounds to provide the equivalent of about 0.0313 to 0.500 kg/ha of active ingredient. The treated containers are placed on greenhouse benches, watered such that the water level is maintained as stated above, and cared for in accordance with conventional greenhouse procedures. Three to four weeks after treatment, the test is terminated and each container is examined and herbicidal effect rated according to the rating system provided in Example 37. The compounds evaluated are reported by compound number given in Example 37.
# Plant species employed in this example are reported by header abbreviation, common name and scientific name.
# [1] = tested on: TRZAWR (Wheat, Winter, cv Riband); experiment: Postemergence herbicidal evaluation; format: in vivo, Triticum aestivum; settings: for herbicidal rating TRZAWR / TRZAWR herbicidal rating: postemergence
# How it was run: as §1
# [2] = tested on: CHEAL (Lambsquarters, Common); experiment: Preemergence herbicidal evaluation; format: in vivo, Chenopodium album; settings: rated 4-5 weeks after treatment
# How it was run: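 Visual 0-9 rating vs control (stand, vigor, malformation, size, chlorosis, overall appearance), scored 4-5 wk after spraying. Seeded soil cups were treated preemergence with compound in aqueous acetone, ~0.0156-0.500 kg/ha equivalent.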
# GALAP (Galium) = experiment: Postemergence herbicidal evaluation; format: in vivo, Galium aparine; settings: for herbicidal rating GALAP / GALAP herbicidal rating: postemergence
# How it was run: as §1
# MOOVA (Monochoria) = experiment: Postemergence weed control under flooded paddy conditions; format: in vivo, Monochoria vaginalis; settings: postemergence weeds, 3-4 weeks after treatment
# How it was run: (§2)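 Herbicidal effect is judged by eye on a 0–9 scale versus control, 3–4 weeks after dosing. Dosing is into flood water kept 1.5–3 cm over the soil, at about 0.0313–0.500 kg/ha in aqueous/acetone 50/50 v/v, on 3–5 cm weeds and 1.5–2.5-leaf rice seedlings.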
# [3] = tested on: SAGPY (Arrowhead (Pygmaea)); experiment: as above; format: in vivo, Sagittaria pygmaea; settings: postemergence weeds, 3-4 weeks after treatment
# How it was run: as §2
Structure (SMILES),Herbicidal rating MOOVA (MOOVA (Monochoria); rate 0.0313 kg/ha),Herbicidal rating MOOVA (MOOVA (Monochoria); rate 0.0625 kg/ha),Herbicidal rating MOOVA (MOOVA (Monochoria); rate 0.1250 kg/ha),Herbicidal rating MOOVA (MOOVA (Monochoria); rate 0.2500 kg/ha),Herbicidal rating SAGPY ([3]; rate 0.0313 kg/ha),Herbicidal rating SAGPY ([3]; rate 0.0625 kg/ha),Herbicidal rating SAGPY ([3]; rate 0.1250 kg/ha),Herbicidal rating SAGPY ([3]; rate 0.2500 kg/ha),"AMBEL herbicidal rating (AMBEL (Ragweed, Common); rate 0.0156 kg/ha)","AMBEL herbicidal rating (AMBEL (Ragweed, Common); rate 0.0313 kg/ha)","AMBEL herbicidal rating (AMBEL (Ragweed, Common); rate 0.0625 kg/ha)","AMBEL herbicidal rating (AMBEL (Ragweed, Common); rate 0.1250 kg/ha)",TRZAWR herbicidal rating ([1]; rate 0.0156 kg/ha),TRZAWR herbicidal rating ([1]; rate 0.0313 kg/ha),TRZAWR herbicidal rating ([1]; rate 0.0625 kg/ha),TRZAWR herbicidal rating ([1]; rate 0.1250 kg/ha),CHEAL preemergence herbicidal rating ([2]; rate 0.0156 kg/ha),CHEAL preemergence herbicidal rating ([2]; rate 0.0313 kg/ha),CHEAL preemergence herbicidal rating ([2]; rate 0.0625 kg/ha),CHEAL preemergence herbicidal rating ([2]; rate 0.1250 kg/ha),also measured
"Cn1c(C(F)(F)F)cc(=O)n(-c2cc(N=C3SCC(=O)N3Cc3ccc(S(N)(=O)=O)cc3)c(Cl)cc2F)c1=O [Compound 135, Alpha-{2-{{2-chloro-5-[3,6-dihydro-3-methyl-2,6-dioxo-4-(trifluoromethyl)-1(2H)-pyrimidinyl]-4-fluorophenyl}imino}-4-oxo-3-thiazolidinyl}-p-toluenesulfonamide]",,,,,,,,,,,,,,,,,,,,,"herbicidal rating AMBEL (AMBEL (Ragweed, Common); rate 0.0156 kg/ha): 9.0; herbicidal rating AMBEL (AMBEL (Ragweed, Common); rate 0.0313 kg/ha): 9.0; herbicidal rating AMBEL (AMBEL (Ragweed, Common); rate 0.0625 kg/ha): 9.0; herbicidal effect rating, ORYSAT (rice tolerance) (ORYSAT (Rice, Tebonnet)): 0.0; herbicidal rating TRZAWR ([1]; rate 0.0156 kg/ha): 2.5; herbicidal rating TRZAWR ([1]; rate 0.0313 kg/ha): 2.5; herbicidal rating TRZAWR ([1]; rate 0.0625 kg/ha): 3.0; Preemergence herbicidal rating CHEAL ([2]; rate 0.0156 kg/ha, rating scale 0-9): 7.0; Preemergence herbicidal rating CHEAL ([2]; rate 0.0313 kg/ha, rating scale 0-9): 7.0; Preemergence herbicidal rating CHEAL ([2]; rate 0.0625 kg/ha, rating scale 0-9): 9.0; Preemergence herbicidal rating CHEAL ([2]; rate 0.1250 kg/ha, rating scale 0-9): 9.0; Preemergence herbicidal rating CHEAL ([2]; rate 0.2500 kg/ha, rating scale 0-9): 9.0; herbicidal rating GALAP (GALAP (Galium); rate 0.0156 kg/ha): 1.0; herbicidal rating GALAP (GALAP (Galium); rate 0.0313 kg/ha): 3.0; herbicidal rating GALAP (GALAP (Galium); rate 0.0625 kg/ha): 4.0"
"CCOC(=O)CN1C(=O)C(CC(=O)OCc2ccccc2)OC1=Nc1cc(-n2c(=O)cc(C(F)(F)F)n(C)c2=O)c(F)cc1Cl (stereo not drawn) [Compound 40, 2-{{2-Chloro-5-[3,6-dihydro-3-methyl-2,6-dioxo-4-(trifluoromethyl)-1(2H)-pyrimidinyl]-4-fluorophenyl}imino}-4-oxo-3,5-oxazolidinediacetic acid, 5-benzyl ethyl ester]",9.0,9.0,9.0,9.0,0.0,0.0,0.0,0.0,,,,,,,,,,,,,"Postemergence herbicidal rating AMBEL (AMBEL (Ragweed, Common); Rate 0.0158 kg/ha): 9.0; Postemergence herbicidal rating AMBEL (AMBEL (Ragweed, Common); Rate 0.0315 kg/ha): 9.0; Postemergence herbicidal rating AMBEL (AMBEL (Ragweed, Common); Rate 0.0630 kg/ha): 9.0; Postemergence herbicidal rating TRZAWR ([1]; Rate 0.0158 kg/ha): 4.0; Postemergence herbicidal rating TRZAWR ([1]; Rate 0.0315 kg/ha): 4.0; Postemergence herbicidal rating TRZAWR ([1]; Rate 0.0630 kg/ha): 4.5; Preemergence herbicidal rating CHEAL ([2]; rate 0.0313 kg/ha): 9.0; Preemergence herbicidal rating CHEAL ([2]; rate 0.0625 kg/ha): 9.0; Preemergence herbicidal rating CHEAL ([2]; rate 0.1250 kg/ha): 9.0; Preemergence herbicidal rating CHEAL ([2]; rate 0.2500 kg/ha): 9.0; Postemergence herbicidal rating GALAP (GALAP (Galium); Rate 0.0158 kg/ha): 1.0; Postemergence herbicidal rating GALAP (GALAP (Galium); Rate 0.0315 kg/ha): 2.0; Postemergence herbicidal rating GALAP (GALAP (Galium); Rate 0.0630 kg/ha): 4.0"
CCC1SC(=Nc2cc(-n3c(=O)cc(C(F)(F)F)n(C)c3=O)c(F)cc2Cl)N(C)C1=O (stereo not drawn) [Compound 10],9.0,9.0,9.0,9.0,0.0,0.0,0.0,0.0,0.5,1.0,2.0,4.5,2.5,3.3,3.3,3.5,9.0,9.0,9.0,9.0,CHEAL preemergence herbicidal rating ([2]; rate 0.2500 kg/ha): 9.0; GALAP herbicidal rating (GALAP (Galium); rate 0.0156 kg/ha): 1.0; GALAP herbicidal rating (GALAP (Galium); rate 0.0313 kg/ha): 2.0; GALAP herbicidal rating (GALAP (Galium); rate 0.0625 kg/ha): 3.5; GALAP herbicidal rating (GALAP (Galium); rate 0.1250 kg/ha): 4.5
"COC(=O)CN1C(=O)CSC1=Nc1cc(-n2c(=O)cc(C(F)(F)F)n(C)c2=O)c(F)cc1Cl [Compound 17, Methyl 2-{{2-chloro-5-[3,6-dihydro-3-methyl-2,6-dioxo-4-(trifluoromethyl)-1(2H)-pyrimidinyl]-4-fluorophenyl}imino}-4-oxo-3-thiazolidineacetate]",9.0,9.0,9.0,9.0,0.0,0.0,4.0,4.0,3.0,6.0,6.0,9.0,3.3,4.5,5.5,7.3,4.5,6.0,9.0,9.0,CHEAL preemergence herbicidal rating ([2]; rate 0.2500 kg/ha): 9.0; CHEAL preemergence herbicidal rating ([2]; rate 0.5000 kg/ha): 9.0; GALAP herbicidal rating (GALAP (Galium); rate 0.0156 kg/ha): 1.5; GALAP herbicidal rating (GALAP (Galium); rate 0.0313 kg/ha): 3.5; GALAP herbicidal rating (GALAP (Galium); rate 0.0625 kg/ha): 5.5; GALAP herbicidal rating (GALAP (Galium); rate 0.1250 kg/ha): 6.0
CC1SC(=Nc2cc(-n3c(=O)cc(C(F)(F)F)n(C)c3=O)c(F)cc2Cl)N(C)C1=O (stereo not drawn) [Compound 9],9.0,9.0,9.0,9.0,0.0,0.0,1.0,2.0,2.0,3.5,7.5,7.0,3.3,3.5,4.3,5.0,9.0,9.0,9.0,9.0,CHEAL preemergence herbicidal rating ([2]; rate 0.2500 kg/ha): 9.0; GALAP herbicidal rating (GALAP (Galium); rate 0.0156 kg/ha): 1.5; GALAP herbicidal rating (GALAP (Galium); rate 0.0313 kg/ha): 2.5; GALAP herbicidal rating (GALAP (Galium); rate 0.0625 kg/ha): 4.5; GALAP herbicidal rating (GALAP (Galium); rate 0.1250 kg/ha): 7.5
"CCOC(=O)CN1C(=O)C(Cc2ccccc2OC(C)C(=O)OC)SC1=Nc1cc(-n2c(=O)cc(C(F)(F)F)n(C)c2=O)c(F)cc1Cl (stereo not drawn) [Compound 50, 2-{{2-Chloro-5-[3,6-dihydro-3-methyl-2,6-dioxo-4-(trifluoromethyl)-1(2H)-pyrimidinyl]-4-fluoro-phenyl}imino}-5-(o-hydroxybenzyl)-4-oxo-3-thiazolidineacetic acid, ethyl ester, ester with methyl lactate]",0.0,0.0,3.0,7.0,2.0,2.0,3.0,3.0,,,,,,,,,,,,,"Postemergence herbicidal rating AMBEL (AMBEL (Ragweed, Common); Rate 0.0156 kg/ha): 9.0; Postemergence herbicidal rating AMBEL (AMBEL (Ragweed, Common); Rate 0.0313 kg/ha): 9.0; Postemergence herbicidal rating AMBEL (AMBEL (Ragweed, Common); Rate 0.0625 kg/ha): 9.0; Postemergence herbicidal rating TRZAWR ([1]; Rate 0.0156 kg/ha): 3.0; Postemergence herbicidal rating TRZAWR ([1]; Rate 0.0313 kg/ha): 3.5; Postemergence herbicidal rating TRZAWR ([1]; Rate 0.0625 kg/ha): 4.5; Preemergence herbicidal rating CHEAL ([2]; rate 0.0625 kg/ha): 0.0; Preemergence herbicidal rating CHEAL ([2]; rate 0.1250 kg/ha): 9.0; Preemergence herbicidal rating CHEAL ([2]; rate 0.2500 kg/ha): 9.0; Postemergence herbicidal rating GALAP (GALAP (Galium); Rate 0.0156 kg/ha): 0.0; Postemergence herbicidal rating GALAP (GALAP (Galium); Rate 0.0313 kg/ha): 2.0; Postemergence herbicidal rating GALAP (GALAP (Galium); Rate 0.0625 kg/ha): 4.0"
